Columns and labels:
Assay type in all cases: in vivo, Aedes aegypti
[1] = system: Ae. aegypti mosquitoes (RJ strain); assay: dsRNA treatment of larvae (soaking, or soaking plus feeding), then pyrethroid adulticide bottle bioassay of adult females
Method: (§1) Third instar larvae were treated (in groups of 100 larvae) in a final volume of 3 mL of dsRNA solution in autoclaved water (0.5 μg/μL for sodium channel (AAEL008297), PgP (AAEL010379) and Ago3 (AAEL007823) dsRNA, or 0.1 μg/μL for CYP9J26 (JF924909.1). The control group was kept in 3 ml sterile water only. Larvae were soaked in the dsRNA solutions for 24 hr at 27° C., and then transferred into new containers (300 larvae/1500 mL of chlorine-free tap water), which were also maintained at 27° C., and were provided 6 mg/100 mL lab dog/cat diet (Purina Mills) suspended in water as a source of food on a daily basis. As pupae developed, they were transferred to individual vials to await eclosion and sex sorting. For bioassays purpose only females up to five days old were used. See Flowchart 1, FIG. 1 for detailed explanation of this experiment.
After soaking in the dsRNA solutions for 24 hr at 27° C., the larvae were transferred into new containers (300 larvae/1500 mL of chlorine-free tap water), and were provided agarose cubes containing 300 μg of dsRNA once a day for a total of four days. The larvae were reared until adult stage. For bioassays purpose only females up to five days old are used. See Flowchart 2, FIG. 2 for detailed explanation of this experiment.
Bottles were prepared following the Brogdon and McAllister (1998) protocol [Brogdon and McAllister (1998) Emerg Infect Dis 4:605-613]. Fifteen-twenty non-blood-fed females from each site were introduced in 250 mL glass bottles impregnated with different concentrations of deltamethrin (Sigma-Aldrich) in 1 ml acetone. Each test consisted of four impregnated bottles and one control bottle. The control bottle contained acetone with no insecticide. At least three tests were conducted for each insecticide and population. Immediately prior to use, all insecticide solutions were prepared fresh from stock solutions. At 15, 30 and 45 min intervals, the number of live and dead mosquitoes in each bottle was recorded. The mortality criteria included mosquitoes with difficulties flying or standing on the bottle's surface. Mosquitoes that survived the appropriate dose for insecticide were considered to be resistant [Brogdon and McAllister (1998), supra].
Cubes of dsRNA-containing mosquito food were prepared as follows: First, 300 μg of dsRNA were mixed with 30 μg of Polyethylenimine 25 kD linear (Polysciences) in 200 μL of sterile water. Then, a suspension of ground mosquito larval food (6 grams/100 mL) was prepared with 2% agarose (Fisher Scientific). The food/agarose mixture was heated to 55° C. and 200 μL of the mixture was then transferred to the tubes containing 200 μL of dsRNA+PEI or water only (control). The mixture was then allowed to solidify into a gel. The solidified gel containing both the food and dsRNA was cut into small pieces (approximately 1 mm thick) using a razor blade, which were then used to feed mosquito larvae in water.

[2] = system: sodium channel (AAEL008297) mRNA; assay: qPCR analysis of sodium channel mRNA expression after dsRNA treatment
Method: as §1
Total RNA was extracted from groups of five Ae. aegypti fourth instar larvae and early adult male/female Ae. aegypti, using TRIzol (Invitrogen, Carlsbad, Calif., USA) according to the manufacturer's instructions. RNA was treated with amplification grade DNase I (Invitrogen) and 1 μg was used to synthesize cDNA using a First Strand cDNA Synthesis kit (Invitrogen). PCR products were purified using a QIAquick PCR purification kit (Qiagen). The MEGAscript RNAi kit (Ambion) was then used for in vitro transcription and purification of dsRNAs. See Flowchart 4, FIG. 4 for detailed explanation production off dsRNA.
(§2) Approximately 1000 ng first-strand cDNA obtained as described previously was used as template. The qPCR reactions were performed using SYBR® Green PCR Master Mix (Applied Biosystems) following the manufacturer's instructions. […] Raw quantification cycle (Cq) values normalized against those of the tubulin and S7 standards were then used to calculate the relative expression levels in samples using the 2^−ΔΔct method [Livak & Schmittgen, (2001) Methods. […]

[3] = system: Ae. aegypti Rockefeller strain; assay: Oviposition assay after larval dsRNA soaking plus feeding; conditions: larvae soaked 24 h in 0.5 μg/μL dsRNA, fed twice with agarose plug containing dsRNA; 15 engorged females per cage; vs water control
Method: FIG. 12 is a flowchart illustration depicting introduction of dsRNA into mosquito larvae via soaking with different doses of “naked” dsRNA plus additional larvae feeding with food-containing dsRNA. Step a) 100 larvae from A. aegypti Rockefeller strain (3rd instar) were soaked for 24 hours with the respective dsRNAs (concentration range from 0.02-0.5 μg/μL) or only in water and were then fed 2 times with food plus agarose 2% containing dsRNA until they reach adult stage (Step b). Step c) The adults arising were allowed to copulate for 3-5 days. Step d) mosquitoes were fed with defibrinated sheep blood. Step e) after blood feeding 15 fully-engorged females were transferred into 3 small cages to be assayed for oviposition. Step f) the total number of laid eggs and the percentage of hatched eggs were counted. FIGS. 13A-B are graphs illustrating larvae from Ae. aegypti Rockefeller strain (3rd instar) soaked for 24 hours in 0.5 μg/μL of Aubergine (Aub) or Argonaute-3 (Ago) dsRNAs or water only. […] (FIG. 13A) The total number of laid eggs and the percentage of hatched eggs were counted (FIG. 13B). […]
(§3) Five days after the blood meal, an ovipositon cup was place inside each cage containing 15 females to allow the females to lay their eggs. […] The number of eggs laid was counted and used to check the viability and egg hatching rate.

[4] = system: Ae. aegypti Rockefeller strain; assay: Egg hatching rate after larval dsRNA soaking plus feeding; conditions: larvae soaked 24 h in 0.5 μg/μL dsRNA, fed twice with agarose plug containing dsRNA; vs water control
Method: FIG. 12 is a flowchart illustration depicting introduction of dsRNA into mosquito larvae via soaking with different doses of “naked” dsRNA plus additional larvae feeding with food-containing dsRNA. Step a) 100 larvae from A. aegypti Rockefeller strain (3rd instar) were soaked for 24 hours with the respective dsRNAs (concentration range from 0.02-0.5 μg/μL) or only in water and were then fed 2 times with food plus agarose 2% containing dsRNA until they reach adult stage (Step b). Step c) The adults arising were allowed to copulate for 3-5 days. Step d) mosquitoes were fed with defibrinated sheep blood. Step e) after blood feeding 15 fully-engorged females were transferred into 3 small cages to be assayed for oviposition. Step f) the total number of laid eggs and the percentage of hatched eggs were counted. […] (FIG. 13A) The total number of laid eggs and the percentage of hatched eggs were counted (FIG. 13B). […]
as §3
To check the viability of the eggs the oviposition paper were kept to dry and embrionate for a period minimum of 5 days. […] The hatching rate (HR) for each treatment were calculated as follow: HR=total number of hatched larvae/total number of eggs oviposited). […]

[5] = system: P-glycoprotein (AAEL010379) mRNA; assay: qPCR analysis of P-glycoprotein mRNA expression after dsRNA treatment; conditions: vs water
Method: as §1
Total RNA was extracted from groups of five Ae. aegypti fourth instar larvae and early adult male/female Ae. aegypti, using TRIzol (Invitrogen, Carlsbad, Calif., USA) according to the manufacturer's instructions. […]
as §2, with “template.” for “template. The qPCR reactions were performed using SYBR® Green PCR Master Mix (Applied Biosystems) following the manufacturer's instructions.”

Molecule: sodium channel dsRNA: dsRNA targeting Ae. aegypti sodium channel (AAEL008297), SEQ ID NO: 1825
- susceptibility of adult mosquitoes to deltamethrin (mortality rate) ([1]; 3rd instar larvae soaked 24 h in 0.5 μg/μL naked dsRNA vs water, adult females exposed to deltamethrin 0.5 μg/bottle): increased susceptibility
- susceptibility of adult mosquitoes to deltamethrin (mortality rate) ([1]; 3rd instar larvae soaked 24 h in 0.5 μg/μL naked dsRNA vs water, adult females exposed to deltamethrin 0.5 μg/bottle, listed as dsRNA against sodium channel): increased substantially the susceptibility
- susceptibility of adult mosquitoes to deltamethrin (mortality rate) ([1]; larvae soaked 24 h in 0.5 μg/μL dsRNA, then fed 4 times with food-containing dsRNA, adult females, deltamethrin 0.5 μg/bottle): increased susceptibility
- susceptibility of adult mosquitoes to deltamethrin (mortality rate) ([1]; larvae soaked 24 h in 0.5 μg/μL dsRNA, then fed 4 times with food-containing dsRNA, adult females, deltamethrin 0.5 μg/bottle, listed as dsRNA against sodium channel): increased the susceptibility
- sodium channel mRNA expression level ([2]; adult female mosquitoes soaked as larvae, collected before deltamethrin treatment, vs water): decreased expression
- sodium channel mRNA expression level ([2]; dead female mosquitoes collected after exposure to deltamethrin, compared to water-treated mosquitoes): striking decrease
- sodium channel mRNA levels ([2]; larvae soaked 24 h in dsRNA, 24 and 48 hours after the end of dsRNA treatment, vs water): decreased mRNA levels

B1: Aub: dsRNA targeting PIWI protein Aub (AAEL007698), SEQ ID NO: 1858 (nucleic acid)
chain: TCTTCTCCACCACAGCCAATGGCGTACAGGCTGGAGAACAGGCAGATTGGACGGCCCATTTCCGTAACAATCCCATGTTCGCTACGGTGCGGTTGACGCGATGGTATTTGATCGTACCGAACCGGGCTTCACGTGAGGCCAACGATTTCCTGGGCTGCATGATTCAAGCCGCACGCGGTATGCGATTTGAGATTAGTAACTGTGAGGTGGTCACCATTCCGGACGACAACCCAGGTACCTATGTGCGAACATTGGACAATCTGCTGAATAAGGACCCGCAGTTGGTGATGTGCGTCGTGACCAACAATAAGGCCGATCGGTACACCGCCATCAAGAAGAAATGTTGCGTTGATCGTGCCATCCCAACGCAAGTCATGGTACAAAAAACGATCACACCAAAGGGTGGTAATGTACGAACACTCATGTCCGTG
modifications: double stranded RNA
- oviposition rate (total number of laid eggs) [3]: no difference
- number of hatched eggs (hatchability) [4]: 50%

B2: Cytochrome p450 (CYP9J26): dsRNA targeting Cytochrome p450 (CYP9J26, JF924909.1), SEQ ID NO: 1824 (nucleic acid)
chain: CTTCAACGACTTCGTCCGATCAATTTACAACAAATATCCTGGAGTGAAGGTTTTCGGAATGTTCGAGACGATCACGCCGTTCTTCGTGATTCGCGATCCGGAGTTGATCAAGCAGATCGGCATCAAGGATTTCGATCACTTCGTTGACCACCGTCCGACGTTCGGACTGGACGATGAAACGGCGGAGCATCCGAAGGCGCTGTTCCGCAAGACGCTGTTCTCGATGACCGGTCAACGGTGGAAGGAGATGCGCGCTACGCTGAGTCCGGCTTTTACCGGCAGTAAGATGCGACAGATGTTCTCGCTGATGAGCGAATGCTGCGACGAAATGATGAAGCACTACCTGGACAAGGCGAAGGGCACGGGAAGGGTGGAAGTCGAAATGAAGGACTTGCTGAGTCGAATCACTATCAATGTGATTGCGTCGTGTGCTTTTGGAATCAAGGTGGAC
modifications: double stranded RNA
- susceptibility of adult mosquitoes to deltamethrin (mortality rate) ([1]; larvae soaked 24 h in 0.1 μg/μL dsRNA, then fed 4 times with food-containing dsRNA, adult females, deltamethrin 0.5 μg/bottle, first 15 minutes of contact): more sensitive
- susceptibility of adult mosquitoes to deltamethrin (mortality rate) ([1]; larvae soaked 24 h in 0.1 μg/μL dsRNA, then fed 4 times with food-containing dsRNA, adult females, deltamethrin 0.5 μg/bottle, first 15 minutes of contact, listed as CYP9J29 dsRNA): affects the susceptibility

B3: PgP: dsRNA targeting P-glycoprotein (AAEL010379), SEQ ID NO: 1822 (nucleic acid)
chain: TGGAAAAGTTGACATTGACGGGATCACGACAACTGATTTCCAGCTTGGCCGCATACGTTCACAAATGGGTCTCGTATCGCAAGAACCTGTTCTGTTTGATCGCACCATCGCGGAAAATATTGCTTATGGTGACAACACTCGCGAGATAAGCATGCCGGAGATAATCGAGGCATCCAAAATGGCAAACATTCACGAATTCATCGTCAATCTACCGAAGGGGTATGACACTAGCCTAGGAACCAAAGGAGCTCAATTGTCTGGTGGCCAAAAGCAACGTATTGCTATAGCTCGTGCTTTGGTTAGAAATCCACGAATCC
modifications: double stranded RNA
- PgP mRNA expression ([5]; adult mosquitoes soaked with dsRNA as larvae): reached normal levels
- PgP mRNA levels ([5]; larvae soaked 24 h in dsRNA, 24 and 48 hours after the end of dsRNA treatment): decreased mRNA levels

— patent US20170071208A1, “COMPOSITIONS FOR MOSQUITO CONTROL AND USES OF SAME” (Forrest Innovations Ltd., priority 2014, published 2017)
